Measurements from BigSolDB 2.1.

OC[C@H]1O[C@@H](Oc2c(O)cc(O)cc2/C=C/c2ccc(O)cc2)[C@H](O)[C@@H](O)[C@@H]1O
solubility (mole fraction)
Conditions	in DMF	in THF	in acetone	in acetonitrile	in ethanol	in ethyl acetate	in isopropanol	in methanol	in n-propanol
278.15 K	0.0145	0.0128	0.0121	0.00281	0.00757	0.00441	0.00535	0.00794	0.00601
283.15 K	0.0175	0.0157	0.0149	0.00349	0.00881	0.00543	0.00652	0.00978	0.0078
288.15 K	0.0214	0.0191	0.0181	0.0043	0.0108	0.00665	0.00838	0.0121	0.00977
293.15 K	0.0255	0.0231	0.0219	0.00526	0.0136	0.00828	0.01	0.0149	0.012
298.15 K	0.0311	0.0277	0.0264	0.00639	0.0159	0.00987	0.0122	0.0181	0.014
303.15 K	0.0369	0.0331	0.0315	0.00772	0.0199	0.0118	0.0146	0.0215	0.0166
308.15 K	0.0442	0.0393	0.0365	0.00927	0.0232	0.0139	0.0174	0.0261	0.0196
313.15 K	0.0522	0.0464	0.0443	0.0111	0.0281	0.0165	0.0205	0.0316	0.0228
318.15 K	0.0614	0.0545	0.052	0.0131	0.0326	0.0192	0.0238	0.0377	0.0269
